Results reported in patent US9067898B1, “Isothiazole derivatives as GPR120 agonists for the treatment of type II diabetes” (Janssen Pharmaceutica NV, priority 2014, dated 2015).

What was measured:
[1] = molecular target: T1, long form of human GPR120 (Homo sapiens, UniProt Q5NUL3); test: Human GPR120 DiscoveRx PathHunter Beta-Arrestin assay, Procedure β-arrestin A; type: cell-based; conditions: PathHunter CHO-K1 GPR120 β-Arrestin cell line, 3000 cells per well, read-out: hGPR120 β-arrestin A EC50
T1 construct: host or cells: PathHunter CHO-K1 GPR120 β-Arrestin Cell Line
T1 sequence (Q5NUL3 1-377 isoform Q5NUL3-1): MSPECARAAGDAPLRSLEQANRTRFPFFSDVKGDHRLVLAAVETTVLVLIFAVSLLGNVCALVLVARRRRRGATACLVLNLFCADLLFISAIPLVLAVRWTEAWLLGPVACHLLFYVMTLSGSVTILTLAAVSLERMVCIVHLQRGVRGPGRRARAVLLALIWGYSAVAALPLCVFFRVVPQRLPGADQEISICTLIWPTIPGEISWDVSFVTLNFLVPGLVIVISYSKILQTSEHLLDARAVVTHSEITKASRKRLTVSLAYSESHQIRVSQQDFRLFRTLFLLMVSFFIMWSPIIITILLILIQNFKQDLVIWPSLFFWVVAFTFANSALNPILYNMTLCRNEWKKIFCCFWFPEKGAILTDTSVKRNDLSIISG
T1 sequence (P32121 whole entry partner): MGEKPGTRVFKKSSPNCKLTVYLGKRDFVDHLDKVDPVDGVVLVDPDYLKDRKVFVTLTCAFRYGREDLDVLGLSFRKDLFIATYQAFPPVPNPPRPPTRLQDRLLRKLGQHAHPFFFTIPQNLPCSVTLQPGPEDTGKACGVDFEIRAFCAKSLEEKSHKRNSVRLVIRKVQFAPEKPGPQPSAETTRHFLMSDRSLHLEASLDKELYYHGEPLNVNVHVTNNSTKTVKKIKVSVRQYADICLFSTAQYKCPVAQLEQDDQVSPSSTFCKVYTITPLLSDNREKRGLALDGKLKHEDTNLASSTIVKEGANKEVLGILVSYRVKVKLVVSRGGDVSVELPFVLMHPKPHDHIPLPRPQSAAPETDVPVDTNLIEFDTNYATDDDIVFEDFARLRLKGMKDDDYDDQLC
Text: The binding of an agonist (medium/long chain fatty acids or small molecule agonists) to the G-protein-coupled receptor GPR120 activates phospholipase C, leading to release of intracellular Ca^+2 through the generation of inositol 1,4,5-trisphosphate (InsP3 or IP3). GPR120 activation can also trigger intracellular signaling via recruitment of Beta-Arrestin. In the present method, agonist-induced activation of the human GPR120 receptor is monitored through the use of PathHunter CHO-K1 GPR120 Beta-Arrestin Cell Line engineered by DiscoveRx, as detailed below. The cell lines are designed to co-express both the ProLink/Enzyme Donor (PK)-tagged GPCR and the Enzyme […] (EA)-tagged Beta-Arrestin fusion proteins. Upon GPR120 receptor stimulation/activation, the EA-tagged Beta-Arrestin portion is translocated to the tagged receptor, where the two enzyme fragments are brought within close proximity. Under these conditions, these fragments can interact and form an active Beta-gal enzyme complex through Enzyme Fragment Complementation (EFC). This active Beta-gal complex can enzymatically hydrolyse the substrate to produce a detectable light signal; therefore, activation as a function of agonist concentration can be expressed as an EC50 value to determine relative compound activities. This in vitro assay therefore serves to assess compound agonist activity of the GPR120. Procedure β-Arrestin A: In Procedure β-arrestin A, the cell used were PathHunter CHO-K1 GPR120 β-Arrestin Cell Line, expressing the long form of human GPR120 (Genbank accession number NM 181745), with 3000 cells per well. Procedure β-Arrestin B: In Procedure 3-arrestin B the cells used were PathHunter CHO-K1 GPR120S β-Arrestin Cell Line, expressing the short form of the GPR120 receptor (Accession #NM_181745), with 5000 cells/well. Assay Procedure:
The selected CHO-K1 GPR120 β-Arrestin cells were cultured in Ham's F12 media supplemented with 10% fetal bovine serum (FBS), 1% Glutamine, lx p/s, 800 μg/mL G418 and 300 μg/mL Hygromycin B (for selection). Cell stocks were maintained and grown in a sub-confluent state using standard cell culture procedures. The day before the experiment, the cells were harvested with non-enzymatic cell dissociation buffer and re-suspended in complete growth media at the desired concentration. A Corning 384-plate was then seeded with the proper number of cells in a volume of 25 μL, per well. The seeded plates were incubated overnight at 37° C.
On the day of the experiment, the Assay Buffer containing (a) HBSS with Ca^++ and Mg^++, (b) 20 mM HEPES, and (c) 0.1% BSA stabilizer (pH 7.4) was prepared. The growth medium was gently removed from the cell plates and 20 μL of Assay Buffer added to each well. The plate was then incubated at 37° C. for 60 min. Test compounds were serially diluted in Assay Buffer to desired concentrations (more particularly to one or more of the following μM concentrations: 25, 12.5, 6.25, 3.125, 1.5625, 0.78125, 0.390625, 0.1953125, 0.09765625, 0.048828125, 0.024414063, 0.012207031). Five μL of compound dilution was then added to each well and the plate incubated at 37° C. for 90 min. The detection reagents were prepared according to the manufacture's instruction. Twelve μL of the detection reagents were added to each well and the plate incubated at room temperature for 60 min.
The plates were read on an EnVision instrument, using Protocol name: Luminescence, Plate type: 384 Costar, Measurement height: 3 mm, Measurement time: 1 s, Aperture: 384 Plate aperture. The % activity relative to the positive control was calculated using the following equation:
The % Activity values were plotted versus the concentration of test compound and fitted to a sigmoidal dose-response curve with a Hill slope=1 (fixed value) using nonlinear regression with GraphPad Prism 5.0 to calculate the EC50 values. […]

[2] = molecular target: T2, Human GPR120 short form (Homo sapiens, UniProt Q5NUL3); test: Human GPR120 calcium flux assay (FLIPR), Procedure Calcium A; type: cell-based; conditions: HEK-293 cells expressing human GPR120 short form, 2500 cells/well; read-out: GPR120 Ca2+ Assay A EC50
T2 construct: expressed in transfected cells
T2 sequence (Q5NUL3 1-361): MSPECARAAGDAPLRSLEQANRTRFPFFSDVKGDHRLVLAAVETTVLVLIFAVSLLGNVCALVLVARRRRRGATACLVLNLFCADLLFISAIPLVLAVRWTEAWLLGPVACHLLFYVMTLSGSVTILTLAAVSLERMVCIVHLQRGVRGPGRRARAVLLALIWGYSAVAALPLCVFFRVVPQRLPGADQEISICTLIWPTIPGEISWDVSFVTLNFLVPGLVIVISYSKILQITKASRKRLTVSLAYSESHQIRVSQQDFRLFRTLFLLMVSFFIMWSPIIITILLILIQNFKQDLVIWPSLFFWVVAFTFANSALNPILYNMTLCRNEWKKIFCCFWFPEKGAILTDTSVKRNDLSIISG
In short: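 HEK293 cells stably expressing the short isoform (NM_001195755.1), 2500/well, starved 1 h, then loaded with Fluo-4 NW plus probenecid (30 min 37 °C, 15 min RT). Compound solutions 0.012–100 μM, 0.2% DMSO final; FLIPR read 300 s after addition. EC50 from Fmax−Fmin fitted to variable-slope sigmoid (Hill <2).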

## OCCCc1cc(F)c(OCc2c(-c3ccc(Cl)cc3)csc2C(F)(F)F)c(F)c1F [Cpd 56, 3-(4-((4-(4-chlorophenyl)-2-(trifluoromethyl)thiophen-3-yl)methoxy)-2,3,5-trifluorophenyl)propan-1-ol]
[1]
  EC50: 108 nM
[2]
  EC50: 237 nM

## COc1nsc(-c2ccc(C)cc2F)c1COc1c(F)cc(CCC(=O)O)cc1F [Cpd 123, 3-(3,5-difluoro-4-[[5-(2-fluoro-4-methylphenyl)-3-methoxy-1,2-thiazol-4-yl]methoxy]phenyl) propanoic acid]
[1]
  EC50: 303 nM
[2]
  EC50: 111 nM

## Cc1c(CCC(=O)O)cc(F)c(OCc2c(-c3ccc(Cl)cc3)nsc2C(F)(F)F)c1F [Cpd 113, 3-(4-((3-(4-chlorophenyl)-5-(trifluoromethyl)isothiazol-4-yl)methoxy)-3,5-difluoro-2-methylphenyl)propanoic acid]
[1]
  EC50: 71 nM
[2]
  EC50: 99 nM

## CCc1ccc(-c2cc(Cl)sc2COc2ccc(CCCO)c(F)c2F)cc1 [Cpd 14, 3-(4-[[5-chloro-3-(4-ethylphenyl)thiophen-2-yl]methoxy]-2,3-difluorophenyl)propan-1-ol]
[1]
  EC50: 265 nM
[2]
  EC50: 163 nM

## CCc1ccc(-c2nsc(C(F)(F)F)c2COc2ccc(CCC(=O)O)c(C)c2C)cc1 [Cpd 127, 3-(4-((3-(4-ethylphenyl)-5-(trifluoromethyl)isothiazol-4-yl)methoxy)-2,3-dimethylphenyl)propanoic acid]
[1]
  EC50: 178 nM
[2]
  EC50: 122 nM

## COc1ccc(-c2csc(C(F)(F)F)c2COc2c(F)cc(CCC(=O)O)cc2F)cn1 [Cpd 42, 3-(3,5-difluoro-4-((4-(6-methoxypyridin-3-yl)-2-(trifluoromethyl)thiophen-3-yl)methoxy)phenyl)propanoic acid]
[1]
  EC50: 445 nM
[2]
  EC50: 143 nM

## CCc1ccc(-c2cscc2COc2ccc(CCC(=O)O)c(F)c2F)cc1 [Cpd 43, 3-(4-((4-(4-ethylphenyl)thiophen-3-yl)methoxy)-2,3-difluorophenyl)propanoic acid]
[1]
  EC50: 591 nM
[2]
  EC50: 147 nM

## CCc1ccc(-c2nsc(C(F)(F)F)c2COc2c(F)cc(CC(C)C(=O)O)cc2F)cc1 (stereo not shown) [Cpd 80, 3-(4-[[3-(4-ethylphenyl)-5-(trifluoromethyl)-1,2-thiazol-4-yl]methoxy]-3,5-difluorophenyl)-2-methylpropanoic acid]
[1]
  EC50: 246 nM
[2]
  EC50: 51 nM

## Cc1c(CCC(=O)O)ccc(OCc2c(Cl)nsc2-c2ccc(Cl)cc2F)c1C [Cpd 122]
[1]
  EC50: 1290 nM
[2]
  EC50: 109 nM

## Cc1ccc(-c2snc(C)c2COc2c(F)cc(CCC(=O)O)cc2F)c(F)c1 [Cpd 84, 3-(3,5-difluoro-4-[[5-(2-fluoro-4-methylphenyl)-3-methyl-1,2-thiazol-4-yl]methoxy]phenyl) propanoic acid]
[1]
  EC50: 119 nM
[2]
  EC50: 56 nM

## Cc1c(CCC(=O)O)ccc(OCc2c(Cl)nsc2-c2ccccc2)c1C [Cpd 101, 3-[4-[(3-chloro-5-phenyl-1,2-thiazol-4-yl)methoxy]-2,3-dimethylphenyl]propanoic acid]
[1]
  EC50: 189 nM
[2]
  EC50: 76 nM

## Cc1c(CCC(=O)O)ccc(OCc2c(-c3ccc(C4CC4)cc3)nsc2C(F)(F)F)c1C [Cpd 190, 3-(4-((3-(4-cyclopropylphenyl)-5-(trifluoromethyl)isothiazol-4-yl)methoxy)-2,3-dimethylphenyl)propanoic acid]
[1]
  EC50: 379 nM
[2]
  EC50: 314 nM

## OCCCc1ccc(OCc2c(-c3ccc(Cl)cc3)nsc2C(F)(F)F)c(F)c1F [Cpd 132, 3-(4-((3-(4-chlorophenyl)-5-(trifluoromethyl)isothiazol-4-yl)methoxy)-2,3-difluorophenyl)propan-1-ol]
[1]
  EC50: 122 nM
[2]
  EC50: 130 nM

## CCc1ccc(-c2nsc(C(F)(F)F)c2COc2c(F)c(F)c(CCC(=O)O)c(F)c2F)cc1 [Cpd 118, 3-(4-((3-(4-ethylphenyl)-5-(trifluoromethyl)isothiazol-4-yl)methoxy)-2,3,5,6-tetrafluorophenyl)propanoic acid]
[1]
  EC50: 257 nM
[2]
  EC50: 105 nM

## O=C(O)CCc1cc(F)c(OCc2c(Cl)nsc2-c2ccc(Cl)cc2F)c(F)c1 [Cpd 114, 3-(4-((3-chloro-5-(4-chloro-2-fluorophenyl)isothiazol-4-yl)methoxy)-3,5-difluorophenyl)propanoic acid]
[1]
  EC50: 295 nM
[2]
  EC50: 100 nM

## CCc1ccc(-c2snc(Cl)c2COc2ccc(CCCO)c(C)c2C)cc1 [Cpd 209, 3-(4-((3-chloro-5-(4-ethylphenyl)isothiazol-4-yl)methoxy)-2,3-dimethylphenyl)propan-1-ol]
[1]
  EC50: 229 nM
[2]
  EC50: 579 nM

## O=C(O)/C=C/c1cc(F)c(OCc2c(-c3ccc(Cl)cc3)nsc2C(F)(F)F)c(F)c1 [Cpd 201, (E)-3-(4-((3-(4-chlorophenyl)-5-(trifluoromethyl)isothiazol-4-yl)methoxy)-3,5-difluorophenyl)acrylic acid]
[1]
  EC50: 341 nM
[2]
  EC50: 453 nM

## CCc1ccc(-c2cc(Cl)sc2COc2ccc(CCC(=O)O)c(C)c2C)cc1 [Cpd 5, 3-(4-[[5-chloro-3-(4-ethylphenyl)thiophen-2-yl]methoxy]-2,3-dimethylphenyl)propanoic acid]
[1]
  EC50: 191 nM
[2]
  EC50: 61 nM

## O=C(O)CCc1ccc(OCc2c(-c3ccc(Cl)cc3)nsc2C(F)(F)F)c(F)c1F [Cpd 106, 3-(4-[[3-(4-chlorophenyl)-5-(trifluoromethyl)-1,2-thiazol-4-yl]methoxy]-2,3-difluorophenyl)propanoic acid]
[1]
  EC50: 98 nM
[2]
  EC50: 86 nM

## 3-(4-[[2-(4-chlorophenyl)-5-methyl-4-(trifluoromethyl)thiophen-3-yl]methoxy]-3,5-difluorophenyl)propanoic acid [Cpd 40]
[1]
  EC50: 650 nM
[2]
  EC50: 129 nM

## Cc1c(CCC(=O)O)ccc(OCc2c(-c3ccc(Cl)c(F)c3)nsc2C(F)(F)F)c1C [Cpd 82, 3-(4-((3-(4-chloro-3-fluorophenyl)-5-(trifluoromethyl)isothiazol-4-yl)methoxy)-2,3-dimethylphenyl)propanoic acid]
[1]
  EC50: 172 nM
[2]
  EC50: 54 nM

## COc1ccc(-c2snc(Cl)c2COc2ccc(CCCO)c(F)c2F)cc1 [Cpd 168, 3-(4-[[3-chloro-5-(4-methoxyphenyl)-1,2-thiazol-4-yl]methoxy]-2,3-difluorophenyl)propan-1-ol]
[1]
  EC50: 325 nM
[2]
  EC50: 223 nM

## Cc1c(CCC(=O)O)ccc(OCc2c(-c3ccc(F)cc3)csc2C(F)(F)F)c1C [Cpd 58, 3-(4-((4-(4-fluorophenyl)-2-(trifluoromethyl)thiophen-3-yl)methoxy)-2,3-dimethylphenyl)propanoic acid]
[1]
  EC50: 639 nM
[2]
  EC50: 293 nM
